Test results reported in patent publication US3962446A, “Analgesic compositions containing 2-cyanoalkylbenzomorphan derivatives and salts thereof” (priority 1971, dated 1976).
Where two headings read alike, the source gives them in different places.

Tests used:
[1] = Long term animal tests for addiction / physical dependency (daily oral or subcutaneous administration for over one month); assay type: in vivo; details: rats, orally or subcutaneously every day for over one month
From the text: On account of this addiction liability, these analgesics are severely restricted in a therapeutic use.

[2] = Subcutaneous writhing test (antagonism of the syndrome produced by intraperitoneal acetic acid); assay type: in vivo, mice; details: Mus musculus, sc
Description: […]. Note: The test was based on the specific antagonism of the test compound to the typical syndrome produced by intraperitoneal injection of 0.6% aqueous acetic acid. The syndrome was characterized by intermittent contractions of the abdomen, twisting and turning of the trunk and extension of the hind legs. A group of 5 mice was used for each dose level. The test compound was administered subcutaneously 20 minutes before the injection of acetic acid. […] The ED50 value was calculated according to the Litchfeld-Wilcoxon's method.

[3] = Abstinence syndrome (bodyweight decrease) on the day after drug withdrawal following 4 weeks of subcutaneous dosing; assay type: in vivo, male rats of Wistar strain; parameters: key: +++: severe decrease (about 5% decrease); ++: moderate decrease; +: mild decrease; -: no decrease; details: male Wistar rats, 20 mg/kg/day for 4 weeks, subcutaneous twice a day
Description: Compound for 4 weeks) syndrome
Note: Groups of male rats of Wistar strain (bodyweight, 150 g), each grou
consisting of 20 male rats, were subcutaneously given the test compound
twice a day for 4 consecutive weeks. On the next day after drug
withdrawal, the bodyweight was measured. The symbols have the following
meanings: +++, severe decrease (about 5% decrease); ++, moderate decrease
+, mild decrease; -, no decrease. The marked decrease is taken as an […]

[4] = cited from earlier work
[5] = mice, subcutaneous, 20 minutes before 0.6% acetic acid i.p., Litchfeld-Wilcoxon's method, read-out: ED50

## CC(=O)Oc1ccc2c(c1)C1(C)CCN(CCC#N)C(C2)C1C (stereo not drawn) [2'-Acetoxy-2-(β-cyanoethyl)-5,9-dimethyl-6,7-benzomorphan]
[1]
  addiction / physical dependency: do not show addiction in long term animal tests
[2]; [5]
  ED50: 0.5 mg/kg
[3]
  Abstinence syndrome: -

## CC1C2Cc3ccc(O)cc3C1(C)CCN2C (centres unmarked) [2'-Hydroxy-2,5,9-trimethyl-6,7-benzomorphan, reference compound]
[2]; [5]
  ED50: 3.5 mg/kg
[4]; prior art compounds
  addiction liability: show an addiction liability
[4]; prior art, U.S. Pat. No. 3,138,603
  analgesic activity: potent analgesic activity
[3]
  Abstinence syndrome: ++

## CC1C2Cc3ccc(O)cc3C1(C)CCN2CCC#N (stereo not drawn) [2'-Hydroxy-2-(β-cyanoethyl)-5,9-dimethyl-6,7-benzomorphan]
[1]
  addiction / physical dependency: do not show addiction in long term animal tests
[2]; [5]
  ED50: 0.9 mg/kg
[3]
  Abstinence syndrome: -

## CC12CCN(CCC#N)C(Cc3ccc(O)cc31)C2 (stereo not drawn) [2'-Hydroxy-2-(β-cyanoethyl)-5-methyl-6,7-benzomorphan]
[1]
  addiction / physical dependency: do not show addiction in long term animal tests
[2]; [5]
  ED50: 2.9 mg/kg
[3]
  Abstinence syndrome: -

## CC1C2Cc3ccc(O)cc3C1(C)CCN2CCCC#N (centres unmarked) [2'-Hydroxy-2-(γ-cyanopropyl)-5,9-dimethyl-6,7-benzomorphan]
[2]; [5]
  ED50: 3 mg/kg
[3]
  Abstinence syndrome: -

## CCC1C2Cc3ccc(O)cc3C1(C)CCN2CCCC#N (centres unmarked) [2'-Hydroxy-2-(γ-cyanopropyl)-5-methyl-9-ethyl-6,7-benzomorphan]
[2]; [5]
  ED50: 1.5 mg/kg
[3]
  Abstinence syndrome: -

## CCC1C2Cc3ccc(O)cc3C1(CC)CCN2CCCC#N (centres unmarked) [2'-hydroxy-2-(γ-cyanopropyl)-5,9-diethyl-6,7-benzomorphan]
[2]; [5]
  ED50: 0.3 mg/kg
[3]
  Abstinence syndrome: -

## CCC12CCN(CCCC#N)C(Cc3ccc(O)cc31)C2C (centres unmarked) [2'-hydroxy-2-(γ-cyanopropyl)-5-ethyl-9-methyl-6,7-benzomorphan]
[1]
  addiction / physical dependency: do not show addiction in long term animal tests
[2]; [5]
  ED50: 0.19 mg/kg
[3]
  Abstinence syndrome: -

## CC12CCN(CCC#N)C(Cc3ccccc31)C2 (stereo not drawn) [2-(β-Cyanoethyl)-5-methyl-6,7-benzomorphan]
[3]
  Abstinence syndrome: -

## COc1ccc2c3c1O[C@H]1[C@@H](O)C=C[C@H]4[C@@H](C2)N(C)CC[C@@]341 [Methylmorphine, reference compound]
[2]; [5]
  ED50: 14 mg/kg

## CN1CC[C@]23c4c5ccc(O)c4O[C@H]2[C@@H](O)C=C[C@H]3[C@H]1C5 [Morphine, reference compound]
[2]
  ED50: 1.4 mg/kg

## CC(C)=CCN1CCC2(C)c3cc(O)ccc3CC1C2C (centres unmarked) [Pentazocine, 2'-hydroxy-2-(3"-methyl-2"-butenyl)-5,9-dimethyl-6,7-benzomorphan, reference compound]
[2]; [5]
  ED50: 17.5 mg/kg
